Data set [1] deals with melanoma cell line B16F10. Kind of data set: Cytotoxicity evaluation by MTT assay. The class given is cell-based. The conditions noted are these: B16F10 cells, 24 hours treatment at each concentration, FIG. 4. As to the method: In order to evaluate the cytotoxicity of Ab-VC-AMB prepared in Example 1, a melanoma cell line B16F10 (1×10^4) was attached to a 96-well plate, and after 24 hours, and the cell line was treated with Ab, AMB, AMB+Ab, and Ab-VC-AMB at each concentration, respectively. After 24 hours, the number of living cells was calculated by MTT assay. For this, 5 mg/ml MTT reagent was diluted 1/10 in the medium, and then 200 μl was added to each well of the 96-well plate. After the cells were cultured in an incubator for 1.5 hours, the MTT reagent was removed, and 200 μl of DMSO was added to each well of the 96-well plate. After the cells were cultured at room temperature for 30 minutes, cell viability was calculated by confirming the absorbance at 570 nm.

Data set [2] deals with major organs (liver, lungs, spleen, kidneys, and heart) and cancer tissue. Description: Histopathological evaluation by H&E staining. Format: in vivo, mice. Particulars: cancer tissue compared to the control, FIG. 8. As for the experimental part: A histopathological evaluation was performed by removing major organs and cancer tissue and staining the tissue by a hematoxylin and eosin (H&E) staining method. For this purpose, the major organs (liver, lungs, spleen, kidneys, and heart) and cancer tissue were removed, placed in a cassette, and fixed in a fixative solution. Then, after a paraffin block was prepared, a sample was prepared with a thickness of 6 μm. After the sample was stained with a Harris hematoxylin staining solution and an eosin-phloxine staining solution, the sample was observed through a slide scanner.

Details of data set [3]: species or system mice. Particulars: mouse, in vivo, iv. As to the method: (§1) In order to evaluate the therapeutic efficacy of Ab-VC-AMB prepared in Example 1 in a disease animal model, a cancer animal model was produced by subcutaneously inoculating B16F10 (1×10^6 cells), which is a melanoma cell line, into mice and allowing tumors to grow for 10 days (Day 0). Thereafter, on days 1, 4, 7 and 10, Ab-VC-AMB, saline, an antibody (Ab) or AMB was injected intravenously into the cancer animal model (Ab 5 mg/kg, AMB 10 mg/kg, Ab-VC-AMB 5 mg/kg), and then the therapeutic efficacy was evaluated for 11 days.

For data set [4], the system named is B16F10 melanoma tumors. Description: Therapeutic efficacy (tumor volume) in B16F10 cancer animal model. The class given is in vivo. The conditions noted are these: B16F10 mice, FIGS. 5 and 6. As to the method:
as §1

In data set [5] the test system is PD-L1 on the surface of exosomes. Description: Exosomal PD-L1 quantified by ELISA. Format: in vivo, mice. Particulars: plasma exosomes after efficacy study, compared to the other groups, FIG. 10. As to the method:
(§2) To evaluate the ability of Ab-VC-AMB prepared in Example 1 to inhibit the secretion of exosomes, after the animal model for which the therapeutic efficacy evaluation was completed was sacrificed, plasma was isolated, and exosomes were isolated and extracted using an exosome isolation kit (Invitrogen total exosome isolation reagent). The amount of protein was measured by performing BCA analysis (bicinchoninic acid assay) on the isolated exosomes. Albumin standards diluted to various concentrations and 150 μl of an unknown sample whose protein amount was not known were put into a 96-well plate, respectively. 150 μl of a working reagent containing bicinchoninic acid from a BCA protein […] kit (Pierce) was placed in each well containing each sample, and the resulting mixture was shaken and mixed well, and then incubated at 37° C. for 2 hours. Thereafter, the protein concentration of exosomes was calculated by measuring the absorbance at 562 nm using a microplate reader.
In addition, PD-L1 on the surface of exosomes, which is a factor known to suppress the activity of T cells, was quantified through ELISA analysis. A 96-well plate was coated with 2 μg/ml PD-L1 antibody incubated at 4° C. for 16 hours […]. […] Absorbance at 450 nm was measured using a microplate reader.

The test system of data set [6] is exosomes in plasma. Kind of data set: Exosomal total protein amount in plasma exosomes (BCA analysis). The conditions noted are these: plasma exosomes after efficacy study, compared to the Ab control, FIG. 9. The class given is in vivo, mice. As for the experimental part: as §2

Take `COC(c1ccccc1)(c1ccccc1)[C@H](Oc1nc(C)cc(C)n1)C(=O)O` [AMB, ambrisentan, reference compound]: the “cytotoxicity (cell viability)” value in data set [1] is “does not have a direct relationship with toxicity affecting cells”.

With `COC(c1ccccc1)(c1ccccc1)C(Oc1nc(C)cc(C)n1)C(=O)OCc1ccc(NC(=O)C(CCCNC(N)=O)CC(=O)C(NC(=O)CCCCCN2C(=O)CC(SC)C2=O)C(C)C)cc1` (centres unmarked) [Ab-VC-AMB], the “cell death area in the cancer tissue (H&E)” value in data set [2] is on record as “a large cell death area in the cancer tissue was observed compared to the control”. Moreover, the “changes in body weight (toxicity)” value in data set [3] is listed as “does not show toxicity”. Also, the “volume of cancer compared to the Ab control” value in data set [4] (i.v. on days 1, 4, 7 and 10, Ab-VC-AMB 5 mg/kg vs Ab 5 mg/kg, 11 days) was “about 45%”. For the same compound, the “cancer volume compared to the control to which saline was administered” value in data set [4] (i.v. on days 1, 4, 7 and 10, Ab-VC-AMB 5 mg/kg, evaluated for 11 days) is 24%. In data set [1], the “cytotoxicity (cell viability)” value is on record as “high biocompatibility”. For the same compound, the “exosomal PD-L1 level” value in data set [5] is “tendency to decrease remarkably”. In data set [6], the “amount of exosomal protein” value is on record as “statistically significant low amount of exosomal protein compared to the Ab control”.
